Several values for one entry are separate records, joined by “and”; a condition that tells them apart may be missing. Equal values may be shown once.
Key:
[1] = target: T1, PHD2 (Homo sapiens, UniProt Q9GZT9); assay: Proline hydroxylation of B-P564 peptide by PHD2, MALDI mass spectrometry; format: biochemical; details: 800 μM baicalein, 1.4 μg/μl PHD2, 2 hours, room temperature
T1 construct: made in house; host or cells: E. coli BL21 (DE3), pGEX-4T-1
Description: For the analysis of proline hydroxylation, 800 μM of baicalein and 1.4 μg/μl of PHD2 were mixed in a buffer (20 mM Tris-HCl, pH 8.0, 100 mM NaCl, 1 mM EDTA, 1 mM PMSF, 0.5% NP-40) supplemented with ascorbic acid (final concentration: 400 μM) and α-ketoglutarate (final concentration: 100 μM). Then, 3 μM of the B-P564 peptide was added to the resulting mixture, and reacted at room temperature for 2 hours. Excess salts in the enzyme reactant were removed by ZipTipC18 (Millipore), and the eluted reactant was analyzed by MALDI mass spectrometry.

[2] = system: HIF-1α binding to hypoxia-response element (HRE); assay: p(HRE)4-luciferase reporter assay in HeLa cells; format: cell-based; details: 20 μM baicalein, 16 hours
Description: In order to examine the binding of the HIF-1α stabilized by baicalein in normoxia with HRE existed on a target gene, luciferase assay was conducted as follows. Specifically, HeLa cells (5×10^4 cells/well) were cultured on a 24-well plate, and 100 ng of p(HRE)4-luciferase plasmid and 50 ng of β-galactosidase expression vector, pCHO110, were co-transfected thereinto. As a control to 20 μM of baicalein, DFO (deferoxamine) and CoCl2 were added to the cells, respectively, and cultured for 16 hours. The cell extract was obtained, and the luciferase activity thereof was measured by luminometer (Tuner Designs).
The value was normalized for the β-galactosidase activity value and the total amount of protein measured by BCA protein analysis (Sigma).

[3] = system: 12-lipoxygenase; details: Daotai et al., JBC 281; cited from earlier work
[4] = target: T2, F-HyP564 peptide / VBC protein (Homo sapiens, UniProt P40337); assay: Fluorescence polarization of F-HyP564 peptide bound to VBC protein (counter-test); format: binding
T2 construct: made in house; host or cells: E. coli BL21 (DE3), co-expression of pGEX4T-VHL-EB and pDEV-EC (pET29b)

[5] = target: T1, PHD2; assay: Fluorescence polarization assay of PHD2-mediated hydroxylation of F-P564 peptide (binding to VBC protein); format: biochemical; details: proline hydroxylation 20 min, baicalein 0 to 200 μM, 500 nM VBC protein; read-out: concentration of baicalein that results in 50% inhibition of the PHD2 activity (IC50)
Description: In order to screen a PHD2 inhibitor, 1040 compounds having biological activities (NINDS Custom Collection II, MicroSource Discovery Systems) were used. First, 1 μl of each compound was aliquoted into a 1.5 ml tube at the final concentration of 20 μM. Then, GST-PHD2 (final concentration: 0.2-0.3 μg/μl) was mixed with the each compound, followed by adding a buffer (20 mM Tris-HCl, pH 8.0, 100 mM NaCl, 1 mM EDTA, 1 mM PMSF, 0.5% NP-40) thereto. […]
[…] After mixing at room temperature, the resulting mixture was transferred to a 96-well plate, and fluorescence polarization was measured by using VICTOR (Perkin-Elmer).
After obtaining the fluorescence polarization value of the mixture of the F-Hy564 peptide ([…]) in the buffer by VICTOR, the PHD2 inhibitory activity of each compound was represented in percentage based on that the fluorescence polarization value. 26 compounds with at least 60% of PHD2 inhibitory activity were randomly selected. […]
In order to examine the PHD2 inhibitory activity of baicalein, proline hydroxylation was performed for 20 min with increasing final concentrations of baicalein from 0 to 200 μM. […] Fluorescence polarization of the resulting mixture was measured by using a fluorometer (Perkin-Elmer), and the size of slit was 6 nm and the integration time was 5 sec.

[6] = target: T3, FIH1 (Homo sapiens, UniProt Q9NWT6); assay: Asparagine hydroxylation of F-N803 peptide by FIH1, MALDI mass spectrometry; format: biochemical; details: 20 μM baicalein, 0.55 μg/μl His-FIH1, 2 hours, room temperature
T3 construct: made in house; host or cells: E. coli BL21 (DE3), pET-28a
Description: Further, in order to examine the inhibitory activity of baicalein against FIH1, 20 μM of baicalein and 0.55 μg/μl of His-FIH1 were mixed in a buffer (50 mM Tris-HCl, pH 7.5, 5 mM KCl, 1.5 mM MgCl2) supplemented with ascorbic acid (final concentration: 400 μM) and α-ketoglutarate (final concentration: 100 μM). Then, 4 μM of the F-HIF-1α peptide containing the 788th-822nd amino acid was added to the resulting mixture, and reacted at room temperature for 2 hours. Excess salts in the reactant were removed by ZipTipC18, and the eluted reactant was analyzed by MALDI mass spectrometry.

[7] = system: VEGF; assay: VEGF mRNA expression in HepG2 cells, RT-PCR; format: cell-based; details: HepG2, normoxia
Description: In order to examine the expression of VEGF known as a representative target gene of the HIF-1α, RT-PCR was conducted as follows. In normoxia, DMSO was treated to HepG2 cells as a negative control, and its influence was observed. As a positive control, HepG2 cells were cultured in hypoxia for 16 hours. In order to amplify cDNA of VEGF mRNA expressed in the cell, the RNA of the cultured cell was subjected to RT-PCR by using forward primer (5′-ccatgaactttctgctdtctt-3′, SEQ ID NO: 5) and reverse primer (5′-[…]-3′, SEQ ID NO: 6). Further, in order to amplify cDNA of 18s rRNA, the RNA of the cultured cell was subjected to RT-PCR by using forward primer (5′-[…]-3′, SEQ ID NO: 7) and reverse primer (5′-[…]-3′, SEQ ID NO: 8) (Table 2).
The amplified product was subjected to electrophoresis on 1.5% agarose-gel, and the mRNA expression was quantitated by phosphoimager (Model Las3000, Fuji) (see FIG. 6a).

[8] = system: HIF-1α; assay: HIF-1α protein expression in HepG2 cells, western blotting; format: cell-based; details: HepG2, normoxia, 6 hours; increase similar to HIF-1α in hypoxia
Description: In order to examine the change of the HIF-1α protein expression by baicalein in a cell, HepG2 strain was grown to 80% confluence on a 60 mm tissue culture plate. Baicalein with increasing concentrations was added to the cultured cell and further cultured in normoxia for 6 hours, and as controls, same cell mixtures were cultured in hypoxia. The cells were washed with 4° C. phosphate based saline buffer, and eluted with radioimmunoprecipitation analysis solution containing 150 mM NaCl, 1% Nonidet P-40, 0.5% deoxycholate, 0.1% SDS, 50 mM Tris (pH 7.4). 100 μg/ml PMSF, 10 μg/ml leupeptin, 1 μg/ml antipain, 10 μg/ml aprotinin, 50 mM β-glycerophosphate, 25 mM NaF, 20 mM EGTA, 1 mM DTT and 1 mM Na3VO4. Then, the cells were centrifuged, and the cell extracts thus obtained were quantified by Bradford protein assay. In order to perform the immunoblot against HIF-1α, 20 μg of the cell extract was suspended in SDS sample buffer, and heated in a water bath for 5 min to completely solublize the protein structure. […] The membrane was treated with ECL solution and exposed to X-ray film for 5 min, and finally the HIF-1α protein was detected, and subjected to luminescence image analyzer (Model LAS-3000, Fuji) for detailed analysis.

[9] = system: VEGF; assay: VEGF secretion by HeLa cells, ELISA; format: cell-based, human; details: 20 μM baicalein, 16 hours, compared with DMSO control
Description: In order to examine the secretion change of the VEGF protein known as a secretion protein synthesized in a cell, its cell culture solution was subjected to ELISA as follows. Specifically, HeLa cells aliquoted on a 24-well plate were cultured for 24-48 hour, and DMSO, CoCl2 (200 μM), DFO (125 μM) and baicalein (20 μM) were treated thereto, respectively. After culturing for 16 hours, the cell solution was recovered and centrifuged to separate supernatant. The supernatant was aliquoted on an antibody-coated well plate using human VEGF Quantikine ELISA kit (R&D Systems) to monitor the amount of VEGF in the supernatant. Then, an antibody for VEGF was treated to each well, followed by measuring the amount of the VEGF using luminometer.

hydroxylation of the proline residue of B-P564 peptide [1]: not hydroxylated
fluorescence polarization value of F-HyP564 peptide with VBC protein ([4]; baicalein at the highest concentration, 500 nM VBC protein): did not decrease
effect on interaction of F-HyP564 with the VBC protein (fluorescence polarization) ([4]; up to 20 μM of baicalein): did not affect
IC50 [5]: ~15 µM and 15 µM
hydroxylation of the asparagine residue of F-HIF-1α peptide (788th-822nd amino acid) [6]: not hydroxylated
Compound: O=c1cc(-c2ccccc2)oc2cc(O)c(O)c(O)c12 [baicalein]
luciferase activity normalized for total protein amount [2]: a similar result was obtained
activity of 12-lipoxygenase [3]: inhibits
amount of the expressed VEGF (FIGS. 6a and 6b) [7]: increases
concentration of baicalein at which HIF-1α protein expression increased [8]: more than 50 μM
amount of VEGF in the supernatant [9]: significantly increase

From patent US20100004325A1, “Use of Baicalein As Prolyl Hydroxylase 2 Inhibitor” (Korea Institute of Science and Technology, priority 2007, published 2010)
